“Also recorded” adds a separate entry of the source. Where two headings read alike, the source gives them in different places. Oligonucleotides are written 5' to 3', each unit as a sugar letter and its base; * is a phosphorothioate linkage, no mark a phosphodiester; rarer units and linkages stand in square brackets, end groups in braces. Plain capitals give the bases only. d = 2'-deoxy (DNA)
Tests used:
survivin = experiment: Western blot of survivin protein in antisense oligonucleotide-treated TC620 cells; type: cell-based, human; conditions: for percentage of survivin protein over β-tubulin relative to lipofectin: 48 hours (FIG. 5A)
Method: Subconfluent TC620 oligodendroglioma cells were transfected with lipofectin or increasing concentrations of survivin antisense oligonucleotide 904 (25 nM to 400 nM). 75 µg of total protein was loaded per lane. Blots were cut at 32.9 kD and the bottom was incubated with a survivin polyclonal antibody (1:500), while the top was incubated with a β-tubulin monoclonal antibody (1:1000).
The antisense oligonucleotides were synthesized on solid support with an automated DNA synthesizer using β-cyanoethylphosphoramidite chemistry. In order to prevent rapid degradation of the antisense oligonucleotides by cellular nucleases, oxidation was carried out with Becauge sulfurizing agent to obtain phosphorothioate backbone modified oligonucleotides. After their synthesis, the oligonucleotides were released from the solid support, deprotected, purified by reverse-phase HPLC, desalted, filtered and lyophilized. The purity and sequence integrity of oligonucleotides was ascertained by capillary gel electrophoresis and MALDI-TOF mass spectral analysis and the concentrations measured at […]. Cells were grown in 100 mm dishes and oligonucleotide treatment was performed on subconfluent cultures in the presence of Lipofectin (GIBCO) according to the manufacturer. Forty-eight hours following treatment, total protein homogenates were isolated.
Ten micrograms of the fusion protein was incubated with the survivin antibody (1:500) at 4° C. for 2 hours to overnight prior to immunoblotting. […] Blots were cut at 32.9 kD, and the bottom part of the blots were incubated with the survivin antibody overnight at 4° C. and visualized by enhanced chemiluminescence (Enhanced Chemiluminescence, Amersham, Arlington Heights, Ill.) as previously described (Sharma et al. Cell. Motil. Cytoskeleton 27:234-247).

PARP [1] = experiment: PARP cleavage immunoblot in MSN cells; type: cell-based, human
Method: To determine whether MSN cell death by survivin antisense oligonucleotides was mediated by caspase-3 activation, studies were conducted to examine whether PARP was cleaved following survivin antisense treatment. […] Since no PARP cleavage was detected, further tests were conducted to determine whether survivin antisense-treated cells have any active caspase-3.

PARP [2] = conditions: TC620 cells; 100 nM to 400 nM (FIG. 5B)
Method: 75 μg of total protein was loaded per lane. Following gel electrophoresis and transfer to nitrocellulose membrane, the blot was incubated with a PARP monoclonal antibody (1:500) and visualized by enhanced chemiluminescence.
(§1) Survivin polyclonal antibody was purchased from R & D Systems, Inc. (Minneapolis, Minn.). […] A generic β-tubulin monoclonal antibody (TUB 2.1) was purchased from SIGMA (St. Louis, Mo.). The XIAP mAb was purchased from StressGen Biotechnologies Corp. (Victoria, Canada). The poly-ADP ribosyl polymerase (PARP) mAb was purchased from PharMingen/Transduction Laboratories (San Diego, Calif.).

XIAP [3] = experiment: Western blot of XIAP protein in TC620 cells; type: cell-based, human; conditions: 48 hours (FIG. 10B)
Method: TC620 oligodendroglioma cells were transfected with lipofectin or increasing concentrations of survivin antisense oligonucleotide 904 (25 to 400 nM). Total protein was isolated after 48 hours of treatment and 75 μg of total protein was loaded per lane. The experiment was performed once.

caspase-3 = experiment: Caspase-3 activity assay in MSN cells; type: cell-based, human; conditions: MSN cells, 400 nM, 48 hours; for caspase-3 activity, Relative units/mg protein +/− SD: triplicate
Method: MSN cells were treated with lipofectin, 400 nM survivin antisense oligonucleotide 903, 904, or mismatched oligonucleotide 1132, for a 48 hour period. Cell pellets were washed twice in cold PBS and re-suspended in ice-cold hypotonic cell lysis buffer (25 mM HEPES, pH 7.5, 5 mM MgCl2, 5 mM EDTA, 5 mM DTT, 2 mM PMSF, 10 μg/ml pepstatin A, 10 μg/ml leupeptin). Re-suspended pellets were incubated on ice for 20 min, followed by brief sonication for two seconds. Lysates were centrifuged at 14,000 rpm for 20 minutes at 4° C. The supernatant was retained and the protein concentration analyzed by the Bio-Rad protein assay described above.
Supernatants were assayed in triplicate, with and without the caspase-3 inhibitor, Ac-DEVD-CHO, using black opaque, 96 well, flat bottom plates (Greiner Laboratories, USA Scientific Inc., Orlando, Fla.). 50-100 μg of the supernatant was incubated in caspase-3 assay buffer (100 mM HEPES, pH 7.5, 10% sucrose, 0.1% CHAPS and 10 mM DTT) with either 2 μl of DMSO or 2 μl of 2.5 mM Ac-DEVD-CHO (Pharmingen, San Diego, Calif.) so that the final concentration of the inhibitor was 50 μM in a final volume of 100 μl. It was then incubated at 30° C. for 30 minutes. Subsequently, 2 μl of the caspase-3 substrate 2.5 mM Ac-DEVD-AMC (Pharmingen, San Diego, Calif.) (final concentration 50 μM)) was added to each well. Plates were incubated at 30° ° C. for 60 minutes in the dark.
Fluorescence of the reaction was measured using a SPECTRAmax GEMINI spectrofluorometer using SOFTmax® PRO software (Molecular Devices, Sunnyvale, Calif.) at an excitation wavelength of 355 nm and an emission wavelength of 460 nm with a cutoff filter of 455 nm. The data is presented as the ratio of the mean relative fluorescence units/mg protein±SD.

XIAP [4] = conditions: MSN cells; 400 nM; 48 hours (FIG. 10A)
Method: MSN cells were treated with lipofectin or 400 nM survivin antisense oligonucleotides 900, 901, 903, 904, 905 and 906. Total protein was isolated 48 hours after treatment, and 100 μg of protein was loaded per lane. The blot was incubated with a monoclonal antibody against XIAP (1:1000; IgG1). Visualization was by enhanced chemiluminescence (ECL). […] The experiment was performed twice.
Total protein homogenates were prepared according to a previously described procedure (Albala et al. (1995) J. Neurochem. 64:2480-2490). Protein content was measured using the Bio-Rad detection system (Bio-Rad Laboratories, Hercules, Calif.). Equal amounts of protein were analyzed by SDS-PAGE on 10% gels (Laemmli (1970) Nature 227:680-685). The resolved polypeptides were electrophoretically transferred to nitrocellulose (Towbin et al. (1979) Proc. Natl. Acad. Sci. USA 76:4350-4354).
as §1

Substance | effect on survivin protein levels (survivin) | percentage of survivin protein over β-tubulin relative to lipofectin (survivin; 25 nM) [%] | percentage of survivin protein over β-tubulin relative to lipofectin (survivin; 50 nM) [%] | percentage of survivin protein over β-tubulin relative to lipofectin (survivin; 100 nM) [%] | percentage of survivin protein over β-tubulin relative to lipofectin (survivin; 200 nM) [%] | decrease in survivin protein abundance relative to lipofectin-treated cells (survivin; 400 nM (FIG. 5A)) [%] | percentage of survivin protein over β-tubulin relative to lipofectin (survivin; 400 nM) [%] | PARP cleavage, words (PARP [1]) | PARP cleavage (116 kD to 85 kD fragment), words (PARP [2]) | fold change of XIAP protein over β-tubulin relative to lipofectin (XIAP [3]; 25 nM) [fold] | fold change of XIAP protein over β-tubulin relative to lipofectin (XIAP [3]; 50 nM) [fold] | fold change of XIAP protein over β-tubulin relative to lipofectin (XIAP [3]; 100 nM) [fold] | fold change of XIAP protein over β-tubulin relative to lipofectin (XIAP [3]; 200 nM) [fold] | fold change of XIAP protein over β-tubulin relative to lipofectin (XIAP [3]; 400 nM) [fold] | caspase-3 activity (caspase-3) | caspase-3 activity, Relative units/mg protein +/− SD (caspase-3) | fold change of XIAP protein over β-tubulin relative to lipofectin (XIAP [4]) [fold]
d(TCTTGGCTCTTTCTCTGTCC) (antisense dT*dC*dT*dT*dG*dG*dC*dT*dC*dT*dT*dT*dC*dT*dC*dT*dG*dT*dC*dC) [Oligo 904, 20-mer phosphorothioate survivin antisense oligonucleotide, complementary to survivin mRNA 5248-5267] | marked concentration-dependent reduction in survivin protein levels | 109.1 | 97.4 | 67.6 | 45.2 | 54 | 45.7 | did not activate caspase-3 or cleave the caspase-3 substrate, PARP | dramatic decrease of the 116 kD PARP protein; also recorded: resulted in the cleavage of the 116 kD caspase-3 substrate PARP | 1.3 | 1.0 | 0.71 | 0.67 | 0.66 | no significant increase in caspase-3 activity; also recorded: did not activate caspase-3 | 33,532 ± 3732 Relative units/mg protein | –
d(GCTTCCCAGTCACATCCTGT) (antisense dG*dC*dT*dT*dC*dC*dC*dA*dG*dT*dC*dA*dC*dA*dT*dC*dC*dT*dG*dT) [Oligo 906] | – | – | – | – | – | – | – | – | – | – | – | – | – | – | – | – | 8.3
d(GCACCTAGTCTCCCTGCACC) (DNA, all phosphorothioate, methylation of C not given here) [Oligo 1132, mismatched phosphorothioate control oligonucleotide, not complementary to survivin mRNA, reference compound] | – | – | – | – | – | – | – | – | – | – | – | – | – | – | no significant increase in caspase-3 activity | 30,961 ± 1681 Relative units/mg protein | –

— patent US20030125287A1, “Antisense oligonucleotides and methods to induce tumor cell death” (Hybridon, Inc., priority 2001, published 2003)
